Assay results published in the kinase profiling compilation of Christmann-Franck et al. (2016).

Columns and labels:
Test in all cases: KINOMEscan competition binding
Details in all cases: compound 10.0 µM
[1] = target: CLK1 (human) (UniProt P49759)
[2] = target: SIK2 (human) (UniProt Q9H0K1)
[3] = target: CDK2 (human) (UniProt P24941)
[4] = target: SGK1 (human) (UniProt O00141)
[5] = tested on: PIK3CA (human), P42336 [E542K]
[6] = target: CDK4 CCND1 (human) (UniProt P11802+P24385)
[7] = target: AURKC (human) (UniProt Q9UQB9)
[8] = target: LRRK2 (human) (UniProt Q5S007)
[9] = target: MTOR (human) (UniProt P42345)
[10] = target: RPS6KA5 KD2 (human) (UniProt O75582)
[11] = target: CSNK1A1 (human) (UniProt P48729)
[12] = target: BRAF (human) (UniProt P15056)
[13] = target: PIK3CA (human) (UniProt P42336)
[14] = target: RIPK2 (human) (UniProt O43353)
[15] = target: PIP5K1C (human) (UniProt O60331)
[16] = target: EPHA5 (human) (UniProt P54756)
[17] = target: CAMK4 (human) (UniProt Q16566)
[18] = target: MAP3K3 (human) (UniProt Q99759)
[19] = target: CDK3 (human) (UniProt Q00526)
[20] = tested on: PIK3CA (human), P42336 [H1047L]
[21] = target: YSK4 (human) (UniProt Q56UN5)
[22] = target: MAP3K10 (human) (UniProt Q02779)
[23] = target: RET (human) (UniProt P07949)
[24] = target: ULK2 (human) (UniProt Q8IYT8)
[25] = target: CDK5 (human) (UniProt Q00535)
[26] = target: ZAP70 (human) (UniProt P43403)
[27] = target: WEE1 (human) (UniProt P30291)
[28] = target: SIK1 (human) (UniProt P57059)
[29] = target: NEK2 (human) (UniProt P51955)
[30] = target: NUAK1 (human) (UniProt O60285)
[31] = target: MAPKAPK5 (human) (UniProt Q8IW41)
[32] = target: MYLK2 (human) (UniProt Q9H1R3)
[33] = target: CRK2 (P.falciparum) (UniProt P61075)
[34] = target: TLK2 (human) (UniProt Q86UE8)
[35] = target: ACVRL1 (human) (UniProt P37023)
[36] = target: STK10 (human) (UniProt O94804)
[37] = target: MAP3K11 (human) (UniProt Q16584)
[38] = target: SBK1 (human) (UniProt Q52WX2)
SBK1 (human), sequence (Q52WX2 whole entry, looked up): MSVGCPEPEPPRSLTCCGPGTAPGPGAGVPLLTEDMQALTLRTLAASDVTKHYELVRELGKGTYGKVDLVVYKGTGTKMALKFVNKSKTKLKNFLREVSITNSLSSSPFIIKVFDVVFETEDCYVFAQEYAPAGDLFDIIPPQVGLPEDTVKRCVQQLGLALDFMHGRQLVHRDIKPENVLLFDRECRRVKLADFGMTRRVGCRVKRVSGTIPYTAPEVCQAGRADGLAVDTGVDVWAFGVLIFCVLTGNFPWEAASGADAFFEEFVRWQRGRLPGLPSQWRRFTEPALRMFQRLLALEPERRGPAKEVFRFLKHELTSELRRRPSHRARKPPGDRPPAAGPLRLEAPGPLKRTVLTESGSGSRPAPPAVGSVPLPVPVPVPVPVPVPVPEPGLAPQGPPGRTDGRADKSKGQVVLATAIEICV

MAPKAPK5 (human), sequence (Q8IW41 whole entry, looked up): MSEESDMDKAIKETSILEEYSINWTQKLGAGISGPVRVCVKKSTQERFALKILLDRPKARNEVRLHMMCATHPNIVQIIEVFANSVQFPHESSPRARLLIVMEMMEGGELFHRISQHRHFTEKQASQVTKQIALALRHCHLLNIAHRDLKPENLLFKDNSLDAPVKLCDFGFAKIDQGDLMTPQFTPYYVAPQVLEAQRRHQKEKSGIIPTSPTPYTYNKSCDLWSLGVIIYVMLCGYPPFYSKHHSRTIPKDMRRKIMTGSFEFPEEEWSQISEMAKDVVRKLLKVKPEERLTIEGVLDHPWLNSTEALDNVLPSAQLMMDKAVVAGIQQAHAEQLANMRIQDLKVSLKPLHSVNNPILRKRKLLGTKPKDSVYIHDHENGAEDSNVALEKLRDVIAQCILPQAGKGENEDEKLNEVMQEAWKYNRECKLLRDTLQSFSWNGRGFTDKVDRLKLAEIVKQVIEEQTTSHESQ
CDK3 (human), sequence (Q00526 whole entry, looked up): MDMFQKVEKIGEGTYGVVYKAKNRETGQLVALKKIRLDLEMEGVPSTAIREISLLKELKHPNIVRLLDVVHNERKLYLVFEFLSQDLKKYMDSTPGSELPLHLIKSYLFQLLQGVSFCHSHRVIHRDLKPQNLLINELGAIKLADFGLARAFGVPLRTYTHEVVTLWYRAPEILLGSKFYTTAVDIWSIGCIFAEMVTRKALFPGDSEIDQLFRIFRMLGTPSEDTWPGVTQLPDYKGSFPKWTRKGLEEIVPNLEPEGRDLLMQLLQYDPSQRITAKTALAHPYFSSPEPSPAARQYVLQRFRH
CDK4 CCND1 (human), sequence (P11802 whole entry, looked up): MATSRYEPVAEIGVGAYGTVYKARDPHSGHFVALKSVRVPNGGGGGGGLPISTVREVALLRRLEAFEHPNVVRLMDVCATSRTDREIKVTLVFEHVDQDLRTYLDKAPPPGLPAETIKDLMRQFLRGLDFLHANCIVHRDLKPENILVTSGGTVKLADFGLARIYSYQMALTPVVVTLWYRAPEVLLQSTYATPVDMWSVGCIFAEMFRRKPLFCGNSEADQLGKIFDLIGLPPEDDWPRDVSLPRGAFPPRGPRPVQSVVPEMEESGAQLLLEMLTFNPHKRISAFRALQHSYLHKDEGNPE
CDK4 CCND1 (human), sequence (P24385 whole entry, looked up): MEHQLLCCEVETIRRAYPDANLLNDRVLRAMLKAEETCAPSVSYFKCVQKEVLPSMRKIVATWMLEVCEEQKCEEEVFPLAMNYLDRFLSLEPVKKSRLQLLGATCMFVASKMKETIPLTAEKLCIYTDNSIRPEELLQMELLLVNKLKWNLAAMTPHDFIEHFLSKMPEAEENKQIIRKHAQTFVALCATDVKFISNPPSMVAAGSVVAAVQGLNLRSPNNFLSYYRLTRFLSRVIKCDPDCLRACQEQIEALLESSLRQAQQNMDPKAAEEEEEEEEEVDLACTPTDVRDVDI
ZAP70 (human), sequence (P43403 whole entry, looked up): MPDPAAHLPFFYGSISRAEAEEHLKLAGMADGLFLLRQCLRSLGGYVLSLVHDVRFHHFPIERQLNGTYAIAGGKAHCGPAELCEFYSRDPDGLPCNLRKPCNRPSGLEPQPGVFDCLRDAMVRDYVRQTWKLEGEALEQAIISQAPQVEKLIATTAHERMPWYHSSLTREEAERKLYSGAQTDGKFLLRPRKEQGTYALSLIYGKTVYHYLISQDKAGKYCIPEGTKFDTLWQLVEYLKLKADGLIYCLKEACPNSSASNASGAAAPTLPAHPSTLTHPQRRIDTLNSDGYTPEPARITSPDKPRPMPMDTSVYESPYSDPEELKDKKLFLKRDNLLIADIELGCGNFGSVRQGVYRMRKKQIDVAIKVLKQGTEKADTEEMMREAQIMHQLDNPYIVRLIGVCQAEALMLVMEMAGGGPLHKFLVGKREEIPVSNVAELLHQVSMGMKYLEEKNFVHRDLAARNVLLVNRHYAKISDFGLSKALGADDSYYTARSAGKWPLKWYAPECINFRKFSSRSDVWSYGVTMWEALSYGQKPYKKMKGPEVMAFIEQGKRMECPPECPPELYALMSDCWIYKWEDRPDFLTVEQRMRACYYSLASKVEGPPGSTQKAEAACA
PIK3CA (human), P42336 [E542K], sequence (P42336 whole entry E542K, looked up): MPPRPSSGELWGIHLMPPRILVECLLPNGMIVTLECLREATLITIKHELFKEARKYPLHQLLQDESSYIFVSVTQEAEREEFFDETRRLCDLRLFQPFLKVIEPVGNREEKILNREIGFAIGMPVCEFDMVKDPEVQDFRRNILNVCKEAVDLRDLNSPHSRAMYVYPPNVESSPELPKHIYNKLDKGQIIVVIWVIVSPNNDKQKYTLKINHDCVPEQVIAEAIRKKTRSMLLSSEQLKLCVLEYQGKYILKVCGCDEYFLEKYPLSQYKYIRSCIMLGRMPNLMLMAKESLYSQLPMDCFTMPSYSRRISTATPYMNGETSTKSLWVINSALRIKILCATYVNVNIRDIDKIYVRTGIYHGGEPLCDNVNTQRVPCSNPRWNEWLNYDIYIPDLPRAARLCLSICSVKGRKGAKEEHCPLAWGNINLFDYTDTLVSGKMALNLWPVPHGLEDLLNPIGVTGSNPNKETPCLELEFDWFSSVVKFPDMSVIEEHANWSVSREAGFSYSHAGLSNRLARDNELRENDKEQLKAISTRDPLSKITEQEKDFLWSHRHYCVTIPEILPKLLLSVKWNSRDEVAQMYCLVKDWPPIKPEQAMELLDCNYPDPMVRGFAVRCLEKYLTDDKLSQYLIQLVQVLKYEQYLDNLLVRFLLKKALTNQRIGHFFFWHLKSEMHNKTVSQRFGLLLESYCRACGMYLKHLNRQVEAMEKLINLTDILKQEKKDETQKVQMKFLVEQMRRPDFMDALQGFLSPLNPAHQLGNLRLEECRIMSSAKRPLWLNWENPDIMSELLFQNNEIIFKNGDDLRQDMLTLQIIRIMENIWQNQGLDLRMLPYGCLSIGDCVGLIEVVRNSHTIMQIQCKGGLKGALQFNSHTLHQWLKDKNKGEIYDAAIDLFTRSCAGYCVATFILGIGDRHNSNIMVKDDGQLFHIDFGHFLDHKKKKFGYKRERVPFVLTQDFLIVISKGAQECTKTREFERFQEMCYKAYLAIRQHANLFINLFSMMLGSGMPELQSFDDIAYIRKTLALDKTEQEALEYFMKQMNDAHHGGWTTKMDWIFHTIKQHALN
NEK2 (human), sequence (P51955 whole entry, looked up): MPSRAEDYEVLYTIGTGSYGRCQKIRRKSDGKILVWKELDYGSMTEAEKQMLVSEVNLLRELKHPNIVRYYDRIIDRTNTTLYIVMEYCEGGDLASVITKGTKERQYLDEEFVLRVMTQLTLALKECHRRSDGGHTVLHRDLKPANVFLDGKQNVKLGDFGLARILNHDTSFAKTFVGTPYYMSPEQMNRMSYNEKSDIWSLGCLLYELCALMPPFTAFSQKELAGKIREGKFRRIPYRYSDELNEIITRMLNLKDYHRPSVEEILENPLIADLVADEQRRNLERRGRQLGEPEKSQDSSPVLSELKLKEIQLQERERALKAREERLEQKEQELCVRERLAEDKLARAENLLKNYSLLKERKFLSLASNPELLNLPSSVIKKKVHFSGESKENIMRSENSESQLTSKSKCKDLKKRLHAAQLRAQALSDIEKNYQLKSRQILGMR
STK10 (human), sequence (O94804 whole entry, looked up): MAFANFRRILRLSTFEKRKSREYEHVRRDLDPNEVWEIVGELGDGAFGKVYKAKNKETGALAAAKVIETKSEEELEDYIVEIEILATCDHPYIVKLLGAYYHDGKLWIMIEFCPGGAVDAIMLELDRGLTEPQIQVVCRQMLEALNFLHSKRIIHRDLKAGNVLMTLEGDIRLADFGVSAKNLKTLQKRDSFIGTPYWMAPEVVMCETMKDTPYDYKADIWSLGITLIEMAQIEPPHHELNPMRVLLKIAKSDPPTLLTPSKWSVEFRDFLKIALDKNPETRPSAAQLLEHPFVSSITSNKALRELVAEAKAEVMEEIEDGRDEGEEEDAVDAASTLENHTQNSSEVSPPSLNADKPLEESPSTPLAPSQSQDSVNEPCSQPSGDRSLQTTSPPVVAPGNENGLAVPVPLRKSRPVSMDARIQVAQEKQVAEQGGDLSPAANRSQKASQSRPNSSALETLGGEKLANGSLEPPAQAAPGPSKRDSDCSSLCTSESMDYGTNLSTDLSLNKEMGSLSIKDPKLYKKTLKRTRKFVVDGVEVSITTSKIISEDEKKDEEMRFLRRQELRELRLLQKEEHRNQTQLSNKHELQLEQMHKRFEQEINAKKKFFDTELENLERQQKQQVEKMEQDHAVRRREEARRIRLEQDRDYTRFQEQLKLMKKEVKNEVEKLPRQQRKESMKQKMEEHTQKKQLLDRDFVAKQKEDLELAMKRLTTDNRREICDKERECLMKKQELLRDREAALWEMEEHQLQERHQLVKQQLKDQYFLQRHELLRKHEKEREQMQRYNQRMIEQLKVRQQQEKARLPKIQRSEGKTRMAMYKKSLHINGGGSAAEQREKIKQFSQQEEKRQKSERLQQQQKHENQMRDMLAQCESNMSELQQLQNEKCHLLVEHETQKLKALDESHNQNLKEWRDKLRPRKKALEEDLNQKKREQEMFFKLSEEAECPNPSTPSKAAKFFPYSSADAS
PIK3CA (human), sequence (P42336 whole entry, looked up): as the sequence (P42336 whole entry E542K, looked up) above, with K542E counted along it
PIK3CA (human), P42336 [H1047L], sequence (P42336 whole entry H1047L, looked up): as the sequence (P42336 whole entry E542K, looked up) above, with K542E, H1047L counted along it

SMILES | kinase still bound, per cent of control [1] [%] | kinase still bound, per cent of control [2] [%] | kinase still bound, per cent of control [3] [%] | kinase still bound, per cent of control [4] [%] | kinase still bound, per cent of control [5] [%] | kinase still bound, per cent of control [6] [%] | kinase still bound, per cent of control [7] [%] | kinase still bound, per cent of control [8] [%] | kinase still bound, per cent of control [9] [%] | kinase still bound, per cent of control [10] [%] | kinase still bound, per cent of control [11] [%] | kinase still bound, per cent of control [12] [%] | kinase still bound, per cent of control [13] [%] | kinase still bound, per cent of control [14] [%] | kinase still bound, per cent of control [15] [%] | kinase still bound, per cent of control [16] [%] | kinase still bound, per cent of control [17] [%] | kinase still bound, per cent of control [18] [%] | kinase still bound, per cent of control [19] [%] | kinase still bound, per cent of control [20] [%] | also measured
COc1cc2ncnc(Nc3cccc(Cl)c3)c2cc1OC | 59 | 67 | 100 | 68 | 55 | 90 | 49 | 79 | 83 | 67 | 35 | 64 | 76 | 19 | 14 | 55 | 100 | 6.6 | 100 | 56 | kinase still bound, per cent of control [21]: 3.2%; kinase still bound, per cent of control [22]: 100%; kinase still bound, per cent of control [23]: 7%; kinase still bound, per cent of control [24]: 87%; kinase still bound, per cent of control [25]: 100%; kinase still bound, per cent of control [26]: 78%; kinase still bound, per cent of control [27]: 93%; kinase still bound, per cent of control [28]: 100%; kinase still bound, per cent of control [29]: 92%; kinase still bound, per cent of control [30]: 98%; kinase still bound, per cent of control [31]: 9.9%; kinase still bound, per cent of control [32]: 40%; kinase still bound, per cent of control [33]: 100%; kinase still bound, per cent of control [34]: 100%; kinase still bound, per cent of control [35]: 100%; kinase still bound, per cent of control [36]: 1.5%; kinase still bound, per cent of control [37]: 100%; kinase still bound, per cent of control [38]: 25%
O=c1[nH]c2ccccc2n1C1CCN(Cc2ccc(-c3nc4cc5[nH]cnc5cc4nc3-c3ccccc3)cc2)CC1 | 100 | 85 | 92 | 71 | 58 | 100 | 88 | 100 | 100 | 99 | 50 | 87 | 77 | 64 | 29 | 100 | 100 | 83 | 100 | 69 | kinase still bound, per cent of control [21]: 75%; kinase still bound, per cent of control [22]: 84%; kinase still bound, per cent of control [23]: 76%; kinase still bound, per cent of control [24]: 88%; kinase still bound, per cent of control [25]: 100%; kinase still bound, per cent of control [26]: 99%; kinase still bound, per cent of control [27]: 99%; kinase still bound, per cent of control [28]: 100%; kinase still bound, per cent of control [29]: 100%; kinase still bound, per cent of control [30]: 100%; kinase still bound, per cent of control [31]: 59%; kinase still bound, per cent of control [32]: 86%; kinase still bound, per cent of control [33]: 100%; kinase still bound, per cent of control [34]: 100%; kinase still bound, per cent of control [35]: 100%; kinase still bound, per cent of control [36]: 65%; kinase still bound, per cent of control [37]: 100%; kinase still bound, per cent of control [38]: 92%
CNC(=O)Nc1ccc(-c2nc(N3CC4CCC(C3)O4)c3cnn(C4CCC5(CC4)OCCO5)c3n2)cc1 | 29 | 97 | 92 | 100 | 14 | 90 | 86 | 82 | 5.7 | 90 | 100 | 100 | 16 | 71 | 100 | 92 | 100 | 100 | 99 | 15 | kinase still bound, per cent of control [21]: 100%; kinase still bound, per cent of control [22]: 100%; kinase still bound, per cent of control [23]: 91%; kinase still bound, per cent of control [24]: 90%; kinase still bound, per cent of control [25]: 88%; kinase still bound, per cent of control [26]: 83%; kinase still bound, per cent of control [27]: 79%; kinase still bound, per cent of control [28]: 86%; kinase still bound, per cent of control [29]: 72%; kinase still bound, per cent of control [30]: 82%; kinase still bound, per cent of control [31]: 100%; kinase still bound, per cent of control [32]: 100%; kinase still bound, per cent of control [33]: 100%; kinase still bound, per cent of control [34]: 100%; kinase still bound, per cent of control [35]: 100%; kinase still bound, per cent of control [36]: 99%; kinase still bound, per cent of control [37]: 100%; kinase still bound, per cent of control [38]: 100%
